According to ChEMBL document CHEMBL1201862, “PubChem BioAssay data set” (2004):
Calls of active or inactive are those of the source.

Legend:
[1] = target: T1, Neuropeptide Y receptor type 2 (Homo sapiens, UniProt P49146); test: IC50 for human NPY-Y2 blockade – cell-based, counter-screen for NPY-Y1 antagonist project, dose response (AID 1278); format: functional
T1 sequence (P49146 whole entry): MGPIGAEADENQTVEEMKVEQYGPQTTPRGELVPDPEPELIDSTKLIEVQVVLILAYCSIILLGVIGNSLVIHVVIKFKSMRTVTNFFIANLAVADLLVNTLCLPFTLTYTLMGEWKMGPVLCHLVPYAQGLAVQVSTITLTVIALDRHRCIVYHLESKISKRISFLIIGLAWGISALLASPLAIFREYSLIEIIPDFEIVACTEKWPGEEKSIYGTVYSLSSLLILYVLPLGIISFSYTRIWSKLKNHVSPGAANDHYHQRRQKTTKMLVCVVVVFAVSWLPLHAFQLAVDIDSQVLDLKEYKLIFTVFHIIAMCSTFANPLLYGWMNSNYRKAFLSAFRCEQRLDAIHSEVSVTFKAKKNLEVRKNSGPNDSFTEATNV

[2] = target: T2, Neuropeptide Y receptor type 1 (Homo sapiens, UniProt P25929); test: IC50 of human NPY-Y1 blockers – cell-based, dose response (AID 1277); format: functional
T2 sequence (P25929 whole entry): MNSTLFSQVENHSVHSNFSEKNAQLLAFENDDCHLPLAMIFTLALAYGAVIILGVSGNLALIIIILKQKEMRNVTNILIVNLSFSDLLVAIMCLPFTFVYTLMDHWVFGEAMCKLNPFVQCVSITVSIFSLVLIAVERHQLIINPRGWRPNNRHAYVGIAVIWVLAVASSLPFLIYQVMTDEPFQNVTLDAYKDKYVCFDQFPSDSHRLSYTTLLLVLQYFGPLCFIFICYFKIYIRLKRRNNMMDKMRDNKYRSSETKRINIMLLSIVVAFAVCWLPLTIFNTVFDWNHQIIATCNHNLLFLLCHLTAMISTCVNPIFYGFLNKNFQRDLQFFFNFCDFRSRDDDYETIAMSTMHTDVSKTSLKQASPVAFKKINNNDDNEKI

Bcl-2-like protein 10 = target: T3, Bcl-2-like protein 10 (Homo sapiens, UniProt Q9HD36); test: Concentration-response of Bcl-B inhibitors by biochemical FP with TR3 (AID 1243); format: functional
T3 sequence (Q9HD36 whole entry): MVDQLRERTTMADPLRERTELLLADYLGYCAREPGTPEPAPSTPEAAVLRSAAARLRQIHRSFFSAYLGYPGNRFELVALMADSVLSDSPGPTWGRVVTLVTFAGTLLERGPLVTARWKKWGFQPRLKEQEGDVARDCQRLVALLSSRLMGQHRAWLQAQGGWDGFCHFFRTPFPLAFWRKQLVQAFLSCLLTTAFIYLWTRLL

[3] = loss of viability in HepG2 cells – cell-based, CellTiter-Glo, cherry-picked, cytotoxicity control for Shn3 inhibitor project, dose response (AID 624134); format: functional
[4] = non-specific 3'UTR reporter inhibition in Clone20-Shn3RL – cell-based, Renilla luciferase, cherry-picked, counter-screen for Shn3 inhibitor project, dose response (AID 624133); format: functional
[5] = reduction of Shn3 3'UTR-driven luciferase in osteoblasts – cell-based, Clone20 osteoblasts, firefly luciferase, cherry-picked, dose response (AID 624132); format: functional;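 further: firefly luciferase luminescence from reporter carrying the Shn3 3'UTR in osteoblasts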
Estrogen receptor [6] = target: T4, Estrogen receptor (Homo sapiens, UniProt P03372); test: ERα coactivator recruitment enhancers – biochemical, TR-FRET, ERα LBD, dose response (AID 737)
T4 sequence (P03372 whole entry): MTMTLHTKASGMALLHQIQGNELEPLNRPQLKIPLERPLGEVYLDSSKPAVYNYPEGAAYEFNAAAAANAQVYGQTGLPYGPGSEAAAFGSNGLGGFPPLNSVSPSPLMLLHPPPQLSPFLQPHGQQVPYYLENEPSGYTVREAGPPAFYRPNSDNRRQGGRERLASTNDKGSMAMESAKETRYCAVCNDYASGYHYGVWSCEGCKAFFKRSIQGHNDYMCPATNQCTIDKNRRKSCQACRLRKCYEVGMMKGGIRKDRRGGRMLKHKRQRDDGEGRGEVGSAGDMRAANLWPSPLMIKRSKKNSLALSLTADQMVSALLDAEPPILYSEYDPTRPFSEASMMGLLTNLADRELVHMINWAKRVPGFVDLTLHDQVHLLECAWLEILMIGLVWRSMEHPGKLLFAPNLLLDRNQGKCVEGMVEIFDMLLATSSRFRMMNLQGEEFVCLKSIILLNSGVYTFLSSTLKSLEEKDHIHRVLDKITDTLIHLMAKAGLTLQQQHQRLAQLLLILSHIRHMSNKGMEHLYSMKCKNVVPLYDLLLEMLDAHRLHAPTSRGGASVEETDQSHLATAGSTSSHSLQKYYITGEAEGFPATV

H4 = test: Luminescence Cell-Based Dose Response HTS to Identify Activators of 5'UTR Stem-Loop Driven Prion Protein mRNA Translation in H4 Neuroglioblastoma Cells. [Related pubchem assays: 1829 (Project Summary), 1814 (Primary HTS)]; format: functional; details: Homo sapiens
[7] = target: T5, Orexin/Hypocretin receptor type 1 (Homo sapiens, UniProt O43613); test: Homogeneous Time Resolved Fluorescence (HTRF)-based cell-based high throughput dose response assay for antagonists of the orexin 1 receptor (OX1R; HCRTR1). [Related pubchem assays (depositor defined):AID434989, AID435008, AID463079, AID485270, AID492963, AID492964, AID492965, AID493232, AID504717, AID504718]; format: functional
T5 sequence (O43613 whole entry): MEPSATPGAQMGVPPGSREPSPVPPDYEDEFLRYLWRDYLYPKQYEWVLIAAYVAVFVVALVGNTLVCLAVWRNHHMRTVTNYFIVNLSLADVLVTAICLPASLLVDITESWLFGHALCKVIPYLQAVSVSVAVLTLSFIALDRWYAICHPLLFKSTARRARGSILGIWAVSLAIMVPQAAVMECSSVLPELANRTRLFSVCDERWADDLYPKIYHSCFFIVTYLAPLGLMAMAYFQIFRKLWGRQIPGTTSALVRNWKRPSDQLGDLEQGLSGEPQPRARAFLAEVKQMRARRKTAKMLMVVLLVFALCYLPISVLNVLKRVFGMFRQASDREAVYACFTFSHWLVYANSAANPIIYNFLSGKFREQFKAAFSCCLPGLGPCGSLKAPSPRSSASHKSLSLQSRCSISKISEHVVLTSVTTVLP

Cytochrome P450 3A4 = Cytochrome P450 3A4 (Homo sapiens, UniProt P08684);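 further: CYP3A4 tested as one member of a cytochrome P450 panel screen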
Chain of Cytochrome P450 3A4 (P08684 whole entry): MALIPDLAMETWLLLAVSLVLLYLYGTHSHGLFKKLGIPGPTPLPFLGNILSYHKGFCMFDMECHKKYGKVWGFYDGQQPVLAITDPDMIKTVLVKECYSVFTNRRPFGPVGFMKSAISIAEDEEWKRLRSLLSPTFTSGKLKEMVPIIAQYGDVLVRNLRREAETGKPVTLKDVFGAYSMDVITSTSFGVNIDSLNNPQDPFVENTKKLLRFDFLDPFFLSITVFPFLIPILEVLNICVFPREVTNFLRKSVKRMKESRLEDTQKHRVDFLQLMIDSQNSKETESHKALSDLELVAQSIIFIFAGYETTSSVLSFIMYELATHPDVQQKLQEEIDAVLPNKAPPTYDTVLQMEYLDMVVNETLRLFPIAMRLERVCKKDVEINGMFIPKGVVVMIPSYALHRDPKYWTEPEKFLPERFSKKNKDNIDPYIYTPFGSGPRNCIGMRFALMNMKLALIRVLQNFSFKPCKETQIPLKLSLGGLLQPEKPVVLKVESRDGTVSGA

[8] = HIV-1 Vif–A3G interaction blockers – biochemical, TR-FRET, GST-Vif 1-94, biotin-A3G peptide, dose response retest, primary screen (AID 1117319); format: functional;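 further: TR-FRET signal of purified GST-Vif binding a biotinylated A3G peptide; inhibitors lower the FRET signal by blocking Vif and A3G binding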
[9] = Luminescence Cell-Based Dose Confirmation HTS to Identify Activators of 5'UTR Stem-Loop Driven Alpha-Synuclein mRNA Translation in H4 Neuroglioblastoma Cells. [Related pubchem assays: 1829 (Project Summary), 1814 (Primary HTS)]; format: functional
Cytochrome P450 2C9 = Cytochrome P450 2C9 (Homo sapiens, UniProt P11712)
Chain of Cytochrome P450 2C9 (P11712 whole entry): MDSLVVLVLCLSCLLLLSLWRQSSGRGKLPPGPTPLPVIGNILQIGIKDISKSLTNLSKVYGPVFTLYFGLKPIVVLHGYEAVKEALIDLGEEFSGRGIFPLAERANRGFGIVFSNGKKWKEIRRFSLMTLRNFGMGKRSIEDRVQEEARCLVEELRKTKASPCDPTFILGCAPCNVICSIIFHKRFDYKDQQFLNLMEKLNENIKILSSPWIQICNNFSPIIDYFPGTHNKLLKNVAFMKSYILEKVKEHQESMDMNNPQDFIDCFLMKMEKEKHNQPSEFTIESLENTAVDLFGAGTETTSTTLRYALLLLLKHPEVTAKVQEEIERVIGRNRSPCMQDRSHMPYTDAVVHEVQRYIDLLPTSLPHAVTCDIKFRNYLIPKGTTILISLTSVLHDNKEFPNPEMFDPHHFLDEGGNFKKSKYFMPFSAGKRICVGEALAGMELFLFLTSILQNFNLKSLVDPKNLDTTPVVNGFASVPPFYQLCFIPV

[10] = target: Protein-tyrosine kinase 2-beta (Homo sapiens, UniProt Q14289);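 further: potency of inhibitors of PYK2 kinase phosphorylation of poly-GT substrate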
Chain of Protein-tyrosine kinase 2-beta (Q14289 whole entry): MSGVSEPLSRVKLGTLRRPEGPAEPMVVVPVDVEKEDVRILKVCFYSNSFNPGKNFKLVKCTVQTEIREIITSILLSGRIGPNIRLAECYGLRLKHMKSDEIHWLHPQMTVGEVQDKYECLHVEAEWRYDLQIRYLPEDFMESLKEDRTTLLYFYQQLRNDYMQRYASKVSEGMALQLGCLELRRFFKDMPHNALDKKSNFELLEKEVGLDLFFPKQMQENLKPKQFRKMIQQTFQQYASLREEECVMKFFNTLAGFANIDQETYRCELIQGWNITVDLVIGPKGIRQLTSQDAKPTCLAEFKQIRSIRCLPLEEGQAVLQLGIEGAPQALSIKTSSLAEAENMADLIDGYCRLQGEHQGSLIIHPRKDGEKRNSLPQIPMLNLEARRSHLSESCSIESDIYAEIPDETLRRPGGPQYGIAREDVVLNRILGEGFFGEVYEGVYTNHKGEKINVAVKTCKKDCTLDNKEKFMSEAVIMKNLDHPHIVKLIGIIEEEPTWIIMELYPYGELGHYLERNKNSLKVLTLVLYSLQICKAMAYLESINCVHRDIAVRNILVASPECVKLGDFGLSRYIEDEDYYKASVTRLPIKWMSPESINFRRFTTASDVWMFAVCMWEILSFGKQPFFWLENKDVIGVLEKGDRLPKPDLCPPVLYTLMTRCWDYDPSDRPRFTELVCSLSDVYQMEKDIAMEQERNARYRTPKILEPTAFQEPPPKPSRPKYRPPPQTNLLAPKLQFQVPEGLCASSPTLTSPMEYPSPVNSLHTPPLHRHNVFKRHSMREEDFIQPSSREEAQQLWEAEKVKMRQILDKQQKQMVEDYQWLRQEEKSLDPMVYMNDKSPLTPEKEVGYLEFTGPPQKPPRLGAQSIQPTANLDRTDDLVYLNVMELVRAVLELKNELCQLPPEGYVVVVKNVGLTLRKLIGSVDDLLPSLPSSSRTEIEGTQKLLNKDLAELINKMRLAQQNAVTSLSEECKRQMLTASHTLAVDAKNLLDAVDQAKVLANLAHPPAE

[11] = Luminescence Cell-Based Dose Response HTS to Identify Activators of Luciferase Translation or Activity in H4 […] Cells. [Related pubchem assays: 1829 (Project Summary), 1814 (Primary HTS)]; format: functional
[12] = target: Peroxisome proliferator-activated receptor gamma/Nuclear receptor coactivator 3 (Homo sapiens, UniProt P37231); format: functional;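 further: agonist potency for raising coactivator recruitment to the receptor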
Cytochrome P450 2C19 = Cytochrome P450 2C19 (Homo sapiens, UniProt P33261); test: Cytochrome panel assay with activity outcomes. Panel member name: p450-cyp2c19 Compounds with AC50 equal or less than 10 uM are considered active; format: functional; details: read-out: AC50
Chain of Cytochrome P450 2C19 (P33261 whole entry): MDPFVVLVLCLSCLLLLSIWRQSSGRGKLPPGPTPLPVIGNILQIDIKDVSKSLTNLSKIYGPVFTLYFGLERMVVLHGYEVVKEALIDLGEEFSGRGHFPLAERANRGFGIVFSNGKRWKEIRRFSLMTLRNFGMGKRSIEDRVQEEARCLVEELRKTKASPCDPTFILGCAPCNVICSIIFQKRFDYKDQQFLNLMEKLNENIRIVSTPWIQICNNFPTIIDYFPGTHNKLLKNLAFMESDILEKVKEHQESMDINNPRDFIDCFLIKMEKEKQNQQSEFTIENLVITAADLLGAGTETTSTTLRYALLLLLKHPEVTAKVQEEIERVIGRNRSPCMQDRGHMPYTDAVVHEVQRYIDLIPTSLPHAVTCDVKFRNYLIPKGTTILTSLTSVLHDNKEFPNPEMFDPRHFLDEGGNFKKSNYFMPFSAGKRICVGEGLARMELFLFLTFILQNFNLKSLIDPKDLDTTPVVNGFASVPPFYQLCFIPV

[13] = target: Peroxisome proliferator-activated receptor gamma/Nuclear receptor coactivator 1 (Homo sapiens, UniProt P37231); format: functional;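 further: agonist potency as compounds enhance coactivator SRC-1 recruitment to PPARgamma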
Orexin receptor type 2 [14] = target: T6, Orexin receptor type 2 (Homo sapiens, UniProt O43614); test: Counterscreen assay for antagonists of the orexin 1 receptor (OX1R; HCRTR1): Homogeneous Time Resolved Fluorescence (HTRF)-based cell-based dose response assay for antagonists of the orexin 2 receptor (OX2R; HCRTR2), run by assay provider.; format: functional
T6 sequence (O43614 whole entry): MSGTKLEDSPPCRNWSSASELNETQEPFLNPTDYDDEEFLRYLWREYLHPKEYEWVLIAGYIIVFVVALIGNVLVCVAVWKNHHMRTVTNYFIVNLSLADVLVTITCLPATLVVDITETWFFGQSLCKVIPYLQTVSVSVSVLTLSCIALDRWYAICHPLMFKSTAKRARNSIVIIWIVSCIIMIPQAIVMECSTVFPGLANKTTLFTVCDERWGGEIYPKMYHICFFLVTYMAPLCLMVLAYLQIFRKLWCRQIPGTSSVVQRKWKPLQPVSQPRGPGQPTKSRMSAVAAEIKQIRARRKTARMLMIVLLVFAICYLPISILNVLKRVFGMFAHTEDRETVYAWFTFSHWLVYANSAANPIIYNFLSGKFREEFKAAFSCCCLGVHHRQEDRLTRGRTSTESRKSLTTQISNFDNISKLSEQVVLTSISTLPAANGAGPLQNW

CHO-K1 = test: Counterscreen for antagonists of the orexin 1 receptor (OX1R; HCRTR1): Homogeneous time resolved fluorescence (HTRF)-based cell-based dose response assay to identify antagonists of the parental CHO-K1 cell line. [Related pubchem assays (depositor defined):AID434989, AID435008, AID463079, AID485270, AID492963, AID492964, AID492965, AID493232, AID504699, AID504701]; format: functional; details: Cricetulus griseus;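 further: potency for inhibition of ATP-stimulated IP1 production as antagonists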
[15] = Counterscreen for antagonists of the orexin 1 receptor (OX1R; HCRTR1): Fluorescence-based cell-based high throughput dose response assay to identify antagonists of the parental CHO cell line. [Related pubchem assays (depositor defined):AID434989, AID435008, AID463079, AID485270, AID492963, AID492964, AID492965, AID493232, AID504699, AID504701]; format: functional
[16] = target: T5, Orexin/Hypocretin receptor type 1; test: Fluorescence-based cell-based high throughput dose response assay for antagonists of the orexin 1 receptor (OX1R; HCRTR1). [Related pubchem assays (depositor defined):AID434989, AID435008, AID463079, AID485270, AID492963, AID492964, AID492965, AID493232, AID504717, AID504718]; format: functional
Orexin receptor type 2 [17] = target: T6, Orexin receptor type 2; test: Counterscreen assay for antagonists of the orexin 1 receptor (OX1R; HCRTR1): Fluorescence-based cell-based dose response assay for antagonists of the orexin 2 receptor (OX2R; HCRTR2), run by assay provider.; format: functional
[18] = target: Peroxisome proliferator-activated receptor gamma/Nuclear receptor coactivator 2 (Homo sapiens, UniProt P37231); format: functional;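 further: agonist potency for raising coactivator recruitment to the receptor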
Estrogen receptor beta [19] = target: T7, Estrogen receptor beta (Homo sapiens, UniProt Q92731); test: blockers of SRC-3 recruitment to ERβ – biochemical, ELISA, streptavidin-HRP readout, orthogonal assay, confirmation (AID 1060)
T7 sequence (Q92731 whole entry): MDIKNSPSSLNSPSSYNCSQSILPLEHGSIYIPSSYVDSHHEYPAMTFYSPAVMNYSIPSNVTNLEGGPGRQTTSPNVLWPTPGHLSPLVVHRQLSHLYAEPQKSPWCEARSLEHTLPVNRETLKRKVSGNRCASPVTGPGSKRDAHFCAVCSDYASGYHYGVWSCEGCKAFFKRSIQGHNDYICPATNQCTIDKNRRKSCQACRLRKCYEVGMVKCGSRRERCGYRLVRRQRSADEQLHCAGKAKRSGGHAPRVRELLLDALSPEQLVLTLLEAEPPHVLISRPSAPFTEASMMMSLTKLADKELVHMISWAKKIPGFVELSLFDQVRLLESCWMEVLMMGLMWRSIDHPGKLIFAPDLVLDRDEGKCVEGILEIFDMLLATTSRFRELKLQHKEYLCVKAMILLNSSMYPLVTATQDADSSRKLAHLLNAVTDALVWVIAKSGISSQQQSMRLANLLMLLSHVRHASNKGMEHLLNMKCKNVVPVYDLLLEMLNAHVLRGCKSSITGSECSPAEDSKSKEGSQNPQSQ

Estrogen receptor beta [20] = target: T7, Estrogen receptor beta
[21] = target: T8, Heat shock 70 kDa protein 1A (Homo sapiens, UniProt P0DMV8); test: small-molecule inhibition of Hsp70 – biochemical, TR-FRET (AID 786)
T8 sequence (P0DMV8 whole entry): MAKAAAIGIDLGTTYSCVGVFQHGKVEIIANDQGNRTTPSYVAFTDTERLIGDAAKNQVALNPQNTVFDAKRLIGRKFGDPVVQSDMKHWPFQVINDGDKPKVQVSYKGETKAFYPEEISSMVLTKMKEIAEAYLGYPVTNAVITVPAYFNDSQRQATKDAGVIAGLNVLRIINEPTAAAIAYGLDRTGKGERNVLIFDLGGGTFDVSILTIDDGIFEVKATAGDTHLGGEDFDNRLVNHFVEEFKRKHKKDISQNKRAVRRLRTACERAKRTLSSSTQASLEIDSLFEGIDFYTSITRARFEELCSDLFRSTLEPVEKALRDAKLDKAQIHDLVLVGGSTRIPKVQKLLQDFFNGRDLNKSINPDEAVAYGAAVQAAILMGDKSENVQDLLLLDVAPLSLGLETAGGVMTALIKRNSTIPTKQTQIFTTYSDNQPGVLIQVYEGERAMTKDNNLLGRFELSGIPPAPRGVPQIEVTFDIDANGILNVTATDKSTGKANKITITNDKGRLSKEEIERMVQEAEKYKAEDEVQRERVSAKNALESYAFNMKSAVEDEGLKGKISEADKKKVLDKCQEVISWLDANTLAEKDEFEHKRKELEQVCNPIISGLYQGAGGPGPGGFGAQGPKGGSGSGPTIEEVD

[22] = Luminescence Cell-Based Dose Retest to Confirm Inhibitors of Cancer Stem Cells. [Related pubchem assays (depositor defined):AID2717, AID2721]; format: functional; details: Homo sapiens
Estrogen receptor [23] = target: T4, Estrogen receptor
[24] = target: T8, Heat shock 70 kDa protein 1A; test: small molecules displacing fluorescent ligand from Hsp70 – biochemical, fluorescence polarization, primary screen (AID 583)
[25] = target: Sphingosine 1-phosphate receptor 4 (Homo sapiens, UniProt O95977); test: Fluorescence dose response cell-based high throughput screening assay for antagonists of the Sphingosine 1-Phosphate Receptor 4 (S1P4). [Related pubchem assays: 1524 (Confirmation in triplicates.), 1510 (Primary screen.)]; format: functional
Chain of Sphingosine 1-phosphate receptor 4 (O95977 whole entry): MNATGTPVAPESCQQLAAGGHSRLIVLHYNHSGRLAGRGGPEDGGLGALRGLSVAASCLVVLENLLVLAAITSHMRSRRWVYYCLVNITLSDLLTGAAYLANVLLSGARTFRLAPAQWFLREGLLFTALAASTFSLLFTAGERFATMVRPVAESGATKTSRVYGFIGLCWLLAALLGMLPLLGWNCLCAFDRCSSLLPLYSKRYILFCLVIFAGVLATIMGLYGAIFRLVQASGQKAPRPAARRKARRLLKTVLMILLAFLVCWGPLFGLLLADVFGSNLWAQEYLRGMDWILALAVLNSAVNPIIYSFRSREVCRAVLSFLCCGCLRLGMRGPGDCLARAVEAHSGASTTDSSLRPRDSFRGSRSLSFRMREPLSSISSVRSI

[26] = target: Sphingosine 1-phosphate receptor 1 (Homo sapiens, UniProt P21453); format: functional;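 further: Tango beta-arrestin reporter U2OS cells stimulated with S1P near its EC80; inhibitor potency meaning antagonism of receptor activation by the natural agonist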
Chain of Sphingosine 1-phosphate receptor 1 (P21453 whole entry): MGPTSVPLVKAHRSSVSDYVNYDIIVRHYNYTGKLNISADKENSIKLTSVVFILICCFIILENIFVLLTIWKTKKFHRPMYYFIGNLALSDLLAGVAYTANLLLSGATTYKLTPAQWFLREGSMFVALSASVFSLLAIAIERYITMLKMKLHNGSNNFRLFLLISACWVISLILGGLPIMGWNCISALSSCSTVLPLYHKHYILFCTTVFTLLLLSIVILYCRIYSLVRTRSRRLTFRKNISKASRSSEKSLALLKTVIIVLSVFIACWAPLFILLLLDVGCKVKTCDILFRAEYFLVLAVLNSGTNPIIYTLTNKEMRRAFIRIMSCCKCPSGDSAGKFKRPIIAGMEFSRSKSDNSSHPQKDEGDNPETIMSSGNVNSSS

Compound: Cc1cccc(OCCNC(=O)c2ccc(Oc3ccc(C(F)(F)F)cc3[N+](=O)[O-])cc2)c1
- IC50 [1]: > 35 µM (not active)
- IC50 [2]: > 35 µM (not active)

Compound: COc1ccccc1NC(=O)C1=C(C)NC(SCC(=O)c2ccc(Br)cc2)=C(C#N)C1c1ccco1 (configuration not stated)
- EC50 (Bcl-2-like protein 10): 6.24 µM (active)

Compound: CCOC(=O)N1CCN(S(=O)(=O)c2ccc(C(=O)Nc3nc4ccc(F)cc4s3)cc2)CC1
- AC50 [3]: > 70 µM (inactive)
- AC50 [4]: 3.38 µM (active)
- AC50 [5]: 4.79 µM (active)
- EC50 (Estrogen receptor [6]): 11.6 µM (active)

Compound: CSc1nc2ccc3nc(NC(=O)c4cccs4)sc3c2s1
- EC50 (H4): > 120 µM (not active)
- IC50 [7]: 0.846 µM (active)
- AC50 (Cytochrome P450 3A4): 20 µM (inconclusive)
- IC50 [8]: > 100 µM (active)
- EC50 [9]: 6.88 µM (active)
- AC50 (Cytochrome P450 2C9): 0.355 µM (inconclusive)
- IC50 [10]: 6.5 µM (active)
- EC50 [11]: 28 µM (active)
- EC50 [12]: 33.2 µM (not active)
- AC50 (Cytochrome P450 2C19): 2.82 µM (inconclusive)
- EC50 [13]: 35.9 µM (not active)
- IC50 (Orexin receptor type 2 [14]): > 50 µM (inactive)
- IC50 (CHO-K1): > 66.2 µM (inactive)
- IC50 [15]: > 49.7 µM (inactive)
- IC50 [16]: 1.23 µM (active)
- IC50 (Orexin receptor type 2 [17]): > 88.8 µM (inactive)
- EC50 [18]: 25.5 µM (not active)

Compound: Cc1ccc(C(=O)ONc2ccc(N=NC(=O)c3ccccc3O)cc2)cc1
- IC50 (Estrogen receptor beta [19]): < 0.023 µM (not active)
- IC50 (Estrogen receptor beta [20]): 8.2 µM (active)
- IC50 [21]: 12.4 µM (active)
- AC50 [22]: 1.51 µM (active)
- IC50 (Estrogen receptor [23]): 8.44 µM (active)
- IC50 [24]: 25.2 µM (active)

Compound: O=C1c2cccc3c([N+](=O)[O-])ccc(c23)C(=O)N1CC1CCCO1 (configuration not stated)
- IC50 [25]: 1.3 µM (active)
- IC50 [26]: 3.72 µM (active)
